Experimental data taken from patent publication US7164002B2, “FVIIa antagonists” (Genentech, Inc., priority 2002, dated 2007).

How the values were obtained:
[1] = test system: citrated pooled normal human plasma; assay: Prothrombin time (PT) clotting assay initiated by TF and Ca2+; format: biochemical; conditions: Innovin
Experimental: The prothrombin time (PT) assay was performed in citrated pooled normal human plasma as described previously (Dennis, M. S., et al., (2000) Nature, 404: 465–470). Clotting times were determined using an ACL 300 Coagulation Analyzer (Coulter Corp., Miami, Fla.) using Innovin (human relipidated TF and Ca2+) from Dade International Inc. to initiate the assay.

FVIIa = biological target: T1, FVIIa (Homo sapiens, UniProt P08709); conditions: pH 7.2; read-out: binding constant Kd to FVIIa; cited from earlier work
T1 sequence (P08709 213-466 limits assumed): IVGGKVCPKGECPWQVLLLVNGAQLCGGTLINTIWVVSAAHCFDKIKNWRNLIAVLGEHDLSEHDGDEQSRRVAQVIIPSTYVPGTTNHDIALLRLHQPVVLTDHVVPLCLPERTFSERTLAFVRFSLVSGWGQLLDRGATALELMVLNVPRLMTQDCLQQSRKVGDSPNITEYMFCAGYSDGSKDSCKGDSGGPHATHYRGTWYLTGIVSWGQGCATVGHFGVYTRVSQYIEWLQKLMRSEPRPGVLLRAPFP
T1 sequence (P08709 61-212 limits assumed): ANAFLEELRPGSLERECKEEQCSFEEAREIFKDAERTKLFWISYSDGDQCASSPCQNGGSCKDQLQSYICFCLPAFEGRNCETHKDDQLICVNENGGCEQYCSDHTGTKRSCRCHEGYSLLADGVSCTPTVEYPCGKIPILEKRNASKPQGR

TF-FVIIa [2] = biological target: T2, TF-FVIIa (Homo sapiens, UniProt P08709); conditions: literature, cited from earlier work; for maximal inhibition of FX activation: saturating concentrations of peptide
Target sequence in this assay (P13726 33-275 partner limits assumed, one chain of several): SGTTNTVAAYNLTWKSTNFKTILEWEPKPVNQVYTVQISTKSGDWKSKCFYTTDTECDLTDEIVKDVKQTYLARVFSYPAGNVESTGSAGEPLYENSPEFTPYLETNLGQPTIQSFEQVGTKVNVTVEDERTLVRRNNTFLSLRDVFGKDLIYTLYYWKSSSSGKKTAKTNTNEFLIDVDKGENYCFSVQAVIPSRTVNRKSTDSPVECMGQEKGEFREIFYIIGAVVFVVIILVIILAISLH

TF-FVIIa [3] = biological target: T2, TF-FVIIa; conditions: literature, cited from earlier work; for maximal extent of inhibition of the amidolytic activity: saturating concentrations of peptide
Target sequence in this assay (P13726 33-251 partner limits assumed, one chain of several): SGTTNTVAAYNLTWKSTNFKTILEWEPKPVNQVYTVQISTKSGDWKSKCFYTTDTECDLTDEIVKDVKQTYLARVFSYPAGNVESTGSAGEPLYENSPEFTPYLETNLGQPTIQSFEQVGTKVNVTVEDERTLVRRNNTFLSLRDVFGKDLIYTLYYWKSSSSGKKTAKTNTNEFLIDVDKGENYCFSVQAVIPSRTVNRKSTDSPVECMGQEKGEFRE

TF-FVIIa [4] = biological target: T2, TF-FVIIa; assay: Inhibition of TF-FVIIa catalyzed activation of FX; format: biochemical; conditions: saturating peptide
Target sequence in this assay (P13726 33-275 partner limits assumed, one chain of several): as the sequence (P13726 33-275 partner limits assumed, one chain of several) above
Experimental: Inhibition of FX activation by TF-VIIa was determined with 300 pM relipidated TF1-243, 20 pM FVIIa , and 165 nM FX at 25° C. as a function of peptide concentration essentially as described (Dennis, M. S., et al., (2000) Nature, 404: 465–470; Kelley, R. F., et al., (1997) Blood, 89: 3219–3227). TF was incorporated into phospholipid vesicles and quantified as previously described (Kelley, R. F., et al., (1997) Blood, 89: 3219–3227). The linear rates of FXa generation can be expressed as mOD405/min/min or as fractional activities (vi/v0).

Substance	fold prolongation of the clotting time [1] [fold]	Kd (FVIIa) [nM]	IC50 for inhibition of activation of FX to FXa by TF-FVIIa (TF-FVIIa [2])	maximal inhibition of FX activation (TF-FVIIa [2]) [%]	inhibition of amidolytic activity (in words) (TF-FVIIa [3])	maximal extent of inhibition of the amidolytic activity (TF-FVIIa [3]) [%]	extent of inhibition of FX activation upon saturation (TF-FVIIa [4]) [%]
EEWEVLCWTWETCER [Peptide A-183]	1.6	2.8	nanomolar range	78	potent but incomplete inhibition	32	–
EEWEVACWTWETCER [Peptide E-76]	–	–	nanomolar range	90	–	50	–
Z-GGSGGDDDDK-EEWEVLCWTWETCER [Z-A-183]	–	–	–	–	–	–	80
